{"source": "patent US8969413B2", "key": {"Sprague Dawley rats": {"test_system": "Sprague Dawley rats", "experiment": "cocaine induced dopamine surge in nucleus accumbens (FIG. 3)", "settings": "1 mg/kg single dose"}, "hGAT-3": {"target": "T1, hGAT-3 (Homo sapiens, UniProt P48066)", "T1 construct": "expressed in transfected cells; host or cells: tsA201 cells, transient (PolyFect)", "T1 sequence (P48066 whole entry)": "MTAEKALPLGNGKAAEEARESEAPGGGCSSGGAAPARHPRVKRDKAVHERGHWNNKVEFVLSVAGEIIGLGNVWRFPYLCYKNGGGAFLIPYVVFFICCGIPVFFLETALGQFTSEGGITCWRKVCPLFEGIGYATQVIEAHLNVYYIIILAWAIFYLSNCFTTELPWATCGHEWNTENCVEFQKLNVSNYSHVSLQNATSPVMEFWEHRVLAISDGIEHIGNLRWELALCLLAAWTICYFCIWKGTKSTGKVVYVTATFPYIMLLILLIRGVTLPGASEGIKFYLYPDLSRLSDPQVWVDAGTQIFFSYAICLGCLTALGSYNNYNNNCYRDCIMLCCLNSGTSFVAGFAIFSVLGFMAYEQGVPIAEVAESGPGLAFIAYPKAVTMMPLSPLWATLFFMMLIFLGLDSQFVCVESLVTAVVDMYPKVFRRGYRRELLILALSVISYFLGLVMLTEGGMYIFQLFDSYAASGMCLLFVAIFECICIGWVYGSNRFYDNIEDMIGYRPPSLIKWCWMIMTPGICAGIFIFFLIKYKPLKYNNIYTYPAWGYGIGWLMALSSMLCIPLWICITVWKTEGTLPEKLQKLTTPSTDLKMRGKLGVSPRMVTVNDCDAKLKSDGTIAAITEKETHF", "experiment": "[3H]GABA uptake at human GABA transporters, tsA201 cells", "assay_type": "cell-based", "description": "(§1) tsA201 cells were cultured in GlutaMAX-I DMEM supplemented with 10% fetal bovine serum, penicillin (100 U/ml), and streptomycin (100 μg/ml) at 37° C. in a humidified atmosphere of 95% air and 5% CO2. […] J. Biol. Chem. 2007, 282, 19331-19341. […] Quantification was performed by using Microscint™ 20 scintillation fluid (PerkinElmer) and a Packard TopCount microplate scintillation counter."}, "hGAT-2": {"target": "T2, hGAT-2 (Homo sapiens, UniProt Q9NSD5)", "T2 construct": "expressed in transfected cells; host or cells: tsA201 cells, transient (PolyFect)", "T2 sequence (Q9NSD5 whole entry)": "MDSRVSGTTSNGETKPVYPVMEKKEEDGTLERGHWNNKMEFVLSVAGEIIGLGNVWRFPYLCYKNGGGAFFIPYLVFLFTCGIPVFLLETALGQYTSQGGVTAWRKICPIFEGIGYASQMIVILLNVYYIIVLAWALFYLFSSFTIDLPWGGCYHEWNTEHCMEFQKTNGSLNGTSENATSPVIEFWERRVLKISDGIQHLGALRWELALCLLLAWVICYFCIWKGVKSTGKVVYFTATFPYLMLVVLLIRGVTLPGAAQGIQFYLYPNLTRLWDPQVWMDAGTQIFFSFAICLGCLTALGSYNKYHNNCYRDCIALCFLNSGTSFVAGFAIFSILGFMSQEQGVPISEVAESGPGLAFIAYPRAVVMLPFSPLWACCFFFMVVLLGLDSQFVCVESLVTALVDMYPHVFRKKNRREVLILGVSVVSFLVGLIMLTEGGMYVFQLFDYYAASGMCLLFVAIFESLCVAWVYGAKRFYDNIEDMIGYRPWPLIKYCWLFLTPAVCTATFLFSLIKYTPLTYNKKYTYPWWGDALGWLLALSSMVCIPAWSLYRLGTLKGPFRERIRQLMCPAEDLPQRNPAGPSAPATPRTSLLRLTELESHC", "experiment": "[3H]GABA uptake at human GABA transporters, tsA201 cells", "assay_type": "cell-based", "description": "as §1"}, "hGAT-1": {"target": "T3, hGAT-1 (Homo sapiens, UniProt P30531)", "T3 construct": "expressed in transfected cells; host or cells: tsA201 cells, transient (PolyFect)", "T3 sequence (P30531 whole entry)": "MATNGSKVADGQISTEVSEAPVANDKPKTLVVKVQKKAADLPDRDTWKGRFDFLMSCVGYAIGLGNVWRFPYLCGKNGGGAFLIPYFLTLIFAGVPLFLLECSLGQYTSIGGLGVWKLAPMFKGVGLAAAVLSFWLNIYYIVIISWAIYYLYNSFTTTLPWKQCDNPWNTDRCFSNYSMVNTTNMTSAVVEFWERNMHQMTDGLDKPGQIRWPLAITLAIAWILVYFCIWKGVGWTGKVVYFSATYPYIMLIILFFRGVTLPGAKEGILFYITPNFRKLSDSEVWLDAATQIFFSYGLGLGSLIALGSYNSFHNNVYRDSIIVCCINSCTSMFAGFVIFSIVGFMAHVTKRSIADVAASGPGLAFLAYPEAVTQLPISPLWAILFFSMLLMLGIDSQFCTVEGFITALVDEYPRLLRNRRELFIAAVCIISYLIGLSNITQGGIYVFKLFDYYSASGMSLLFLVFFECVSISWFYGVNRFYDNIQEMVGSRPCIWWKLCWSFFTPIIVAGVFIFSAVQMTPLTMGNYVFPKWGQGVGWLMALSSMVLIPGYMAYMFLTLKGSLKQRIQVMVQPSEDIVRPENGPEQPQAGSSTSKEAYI", "experiment": "[3H]GABA uptake at human GABA transporters, tsA201 cells", "assay_type": "cell-based", "description": "as §1"}, "hBGT-1": {"target": "T4, hBGT-1 (Homo sapiens, UniProt P48065)", "T4 construct": "expressed in transfected cells; host or cells: tsA201 cells, transient (PolyFect)", "T4 sequence (P48065 whole entry)": "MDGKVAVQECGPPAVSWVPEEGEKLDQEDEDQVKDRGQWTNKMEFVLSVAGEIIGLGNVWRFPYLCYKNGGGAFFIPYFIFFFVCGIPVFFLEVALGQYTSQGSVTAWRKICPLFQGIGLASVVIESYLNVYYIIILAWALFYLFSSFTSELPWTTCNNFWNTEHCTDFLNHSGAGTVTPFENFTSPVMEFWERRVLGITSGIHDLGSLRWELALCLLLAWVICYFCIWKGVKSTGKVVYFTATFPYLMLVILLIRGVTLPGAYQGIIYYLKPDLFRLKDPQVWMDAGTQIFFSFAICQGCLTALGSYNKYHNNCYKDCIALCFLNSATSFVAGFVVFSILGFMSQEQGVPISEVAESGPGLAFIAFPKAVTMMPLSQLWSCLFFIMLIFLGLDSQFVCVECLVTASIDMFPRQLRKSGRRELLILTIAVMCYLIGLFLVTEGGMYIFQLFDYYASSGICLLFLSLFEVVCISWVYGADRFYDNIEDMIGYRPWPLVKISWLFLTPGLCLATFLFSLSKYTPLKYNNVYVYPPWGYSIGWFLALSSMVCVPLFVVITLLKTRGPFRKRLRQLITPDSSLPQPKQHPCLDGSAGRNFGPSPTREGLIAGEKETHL", "experiment": "[3H]GABA uptake at human GABA transporters, tsA201 cells", "assay_type": "cell-based", "description": "as §1"}, "Mice [1]": {"test_system": "Mice", "experiment": "subcutaneous picrotoxin (scPIC)", "assay_type": "in vivo", "description": "(§2) Bicuculline (Bic) and Picrotoxin (Pic) are chemoconvulsants that cause clonic seizures in a manner similar to Metrazol (see scMET test). […] Therefore, as much as possible it is useful to differentiate novel AEDs pharmacologically. […]. At a previously determined time of peak effect (TPE), the animals are given a subcutaneous injection of either of the noted chemo-convulsants using the convulsive dose (CD97—a dose of 2.7 or 2.5 mg/kg, for Bic and Pic, respectively). The experimental animals are placed in isolation cages to minimize possible crowding stresses (Swinyard et al., 1961) and observed for the next 30 minutes (for Bic) or 45 minutes (for Pic) for the presence or absence of a seizure. An episode of clonic spasms, approximately 3-5 seconds, of the fore and/or hindlimbs, jaws, or vibrissae is used as the experimental endpoint."}, "Mice [2]": {"test_system": "Mice", "experiment": "subcutaneous bicuculline (scBIC)", "assay_type": "in vivo", "settings": "Single IP drug dose, 2.7 mg/kg BIC; from 10-200 mg/kg; inconclusive?", "description": "as §2"}, "Mice [3]": {"test_system": "Mice", "experiment": "minimal clonic seizure (6 Hz) test", "assay_type": "in vivo", "settings": "Single IP drug dose, 3 seconds, corneal electrode; for ED50: Mus musculus, ip", "source_text": "Some clinically useful AEDs are ineffective in the standard MES and scMET tests but still have anticonvulsant activities in vivo. In order to identify potential AEDs with this profile, compounds may be tested in the minimal clonic seizure (6 Hz or ‘psychomotor’) test (Barton et al., 2001). […] Test compounds are pre-administered to mice via i.p. injection. At varying times, individual mice (four per time point) are challenged with sufficient current delivered through corneal electrodes to elicit a psychomotor seizure in 97% of animals (32 mA for 3 s) (Toman et al., 1952). Untreated mice will display seizures characterized by a minimal clonic phase followed by stereotyped, automatistic behaviors described originally as being similar to the aura of human patients with partial seizures. Animals not displaying this behavior are considered protected. The test may be evaluated quantitatively by measuring the responses at varying doses at a determined time of peak effect (TPE). This test may also be conducted at 22 and 44 mA if requested by ASP staff."}, "GABAB receptor": {"target": "GABAB receptor (Rattus norvegicus, UniProt Q9Z0U4)", "sequence (Q9Z0U4 17-960 limits assumed)": "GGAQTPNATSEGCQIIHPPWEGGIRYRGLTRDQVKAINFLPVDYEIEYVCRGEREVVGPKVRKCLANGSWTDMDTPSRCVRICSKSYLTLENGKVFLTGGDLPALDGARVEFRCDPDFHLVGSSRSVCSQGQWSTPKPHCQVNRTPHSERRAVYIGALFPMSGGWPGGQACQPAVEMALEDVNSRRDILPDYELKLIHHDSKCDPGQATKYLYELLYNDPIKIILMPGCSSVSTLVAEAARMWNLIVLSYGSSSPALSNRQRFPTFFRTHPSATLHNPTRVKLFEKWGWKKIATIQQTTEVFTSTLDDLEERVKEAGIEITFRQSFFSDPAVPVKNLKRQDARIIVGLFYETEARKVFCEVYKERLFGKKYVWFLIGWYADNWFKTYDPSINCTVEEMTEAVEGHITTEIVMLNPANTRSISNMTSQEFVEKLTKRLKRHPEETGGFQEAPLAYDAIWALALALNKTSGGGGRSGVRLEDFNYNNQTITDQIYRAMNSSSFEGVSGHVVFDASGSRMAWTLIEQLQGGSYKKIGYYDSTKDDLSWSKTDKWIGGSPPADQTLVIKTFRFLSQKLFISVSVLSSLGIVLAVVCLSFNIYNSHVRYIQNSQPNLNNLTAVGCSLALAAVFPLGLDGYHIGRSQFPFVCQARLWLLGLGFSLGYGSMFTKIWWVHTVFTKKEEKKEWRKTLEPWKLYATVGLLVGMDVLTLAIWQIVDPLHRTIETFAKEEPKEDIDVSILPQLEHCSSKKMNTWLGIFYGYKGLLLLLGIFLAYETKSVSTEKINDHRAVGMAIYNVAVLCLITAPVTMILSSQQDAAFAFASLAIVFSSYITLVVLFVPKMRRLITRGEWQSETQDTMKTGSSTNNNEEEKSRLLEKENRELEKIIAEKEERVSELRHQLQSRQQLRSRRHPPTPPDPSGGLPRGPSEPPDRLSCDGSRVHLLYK", "sequence (O88871 41-940 partner)": "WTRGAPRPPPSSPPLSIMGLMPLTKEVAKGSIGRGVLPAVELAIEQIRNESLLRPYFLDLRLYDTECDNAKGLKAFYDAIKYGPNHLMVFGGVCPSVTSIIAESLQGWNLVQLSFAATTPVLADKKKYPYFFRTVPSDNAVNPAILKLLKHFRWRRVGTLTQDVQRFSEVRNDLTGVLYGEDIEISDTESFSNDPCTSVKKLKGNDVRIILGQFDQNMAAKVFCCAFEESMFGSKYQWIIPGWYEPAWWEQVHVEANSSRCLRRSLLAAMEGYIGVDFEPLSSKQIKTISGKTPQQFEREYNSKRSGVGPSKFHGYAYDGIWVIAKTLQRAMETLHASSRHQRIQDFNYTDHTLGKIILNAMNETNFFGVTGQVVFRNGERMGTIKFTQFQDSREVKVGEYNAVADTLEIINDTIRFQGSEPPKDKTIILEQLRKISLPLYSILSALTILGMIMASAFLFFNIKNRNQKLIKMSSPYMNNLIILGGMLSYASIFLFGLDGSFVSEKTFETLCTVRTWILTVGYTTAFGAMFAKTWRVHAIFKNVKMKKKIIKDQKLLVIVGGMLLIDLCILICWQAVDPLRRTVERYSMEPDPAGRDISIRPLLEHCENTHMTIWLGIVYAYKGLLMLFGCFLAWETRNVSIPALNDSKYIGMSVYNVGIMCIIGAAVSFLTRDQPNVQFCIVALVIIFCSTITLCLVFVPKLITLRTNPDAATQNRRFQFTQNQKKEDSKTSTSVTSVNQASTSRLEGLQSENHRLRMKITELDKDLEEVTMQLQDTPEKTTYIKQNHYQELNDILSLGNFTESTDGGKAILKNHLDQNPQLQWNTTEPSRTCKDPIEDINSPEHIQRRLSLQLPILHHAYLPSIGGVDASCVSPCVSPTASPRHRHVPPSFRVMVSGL", "experiment": "biochemical"}, "human ρ1 GABAC receptors": {"target": "T5, human ρ1 GABAC receptors (Homo sapiens, UniProt P24046)", "T5 construct": "expressed in transfected cells; host or cells: Xenopus laevis oocytes injected with ρ1 mRNA", "T5 sequence (P24046 21-479 limits assumed)": "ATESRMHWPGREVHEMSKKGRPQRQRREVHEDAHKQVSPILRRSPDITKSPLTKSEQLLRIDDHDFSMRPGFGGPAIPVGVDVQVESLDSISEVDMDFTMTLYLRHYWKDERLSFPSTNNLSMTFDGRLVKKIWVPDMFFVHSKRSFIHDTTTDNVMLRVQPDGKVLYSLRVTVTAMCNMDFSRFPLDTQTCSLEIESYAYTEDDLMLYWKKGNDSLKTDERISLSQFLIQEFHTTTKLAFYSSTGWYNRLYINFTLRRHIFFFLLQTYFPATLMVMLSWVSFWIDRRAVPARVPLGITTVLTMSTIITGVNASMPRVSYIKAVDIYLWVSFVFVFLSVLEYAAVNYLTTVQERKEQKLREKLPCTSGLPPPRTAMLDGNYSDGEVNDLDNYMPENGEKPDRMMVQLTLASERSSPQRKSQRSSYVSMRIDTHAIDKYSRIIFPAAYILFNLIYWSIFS", "experiment": "GABAC receptor two-electrode voltage clamp in Xenopus laevis oocytes", "assay_type": "cell-based", "description": "Human ρ1 cDNA encapsulated in pcDNA1.1 was linearized with Not1. Linearized cDNA was transcribed to mRNA using the T7 “mMESSAGE mMACHINE” kit (Ambion Inc. Austin, Tex., USA) as previously described. […] Eur. J. Pharmacol. 2001, 430, 185-192. GABAC receptor activity assays were performed in oocytes harvested from Xenopus laevis (housed in the Department of Veterinary Science at the University of Sydney) and defolliculated. The oocytes were stored in ND96 solution (in mM) NaCl (96), KCl (2), MgCl2 (1), CaCl2 (1.8), HEPES (hemi-Na salt; 5) supplemented with sodium pyruvate (2.5), theophylline (0.5), and 50 μg/ml^−1 gentamycin for 2-5 days post-injection.\nElectrophysiological methods were performed as previously described. Hertz L, Juurlink B H J, Hertz E, Fosmark H and Schousboe A. Preparation of Primary Cultures of Mouse (Rat) Astrocytes, in A Dissection and Tissue Culture Mnual of the Nervous System (Shahar A, de Vellis J, Vernadakis A and Haber B eds) pp 105-108, Alan R. Liss, Inc., New York, 1989 Stage V-VI oocytes were injected with 10 ng 50 nl^−1 of ρ1 mRNA and then stored at 16° C. Recordings of receptor activity were obtained for 2-5 days by a two-electrode voltage clamp by means of a Geneclamp 500 amplifier (Axon Instruments Inc., Foster City, Calif.), a MacLab 2e recorder (AD Instruments, Sydney, NSW), and Chart version 3.6.3 program. Oocytes were voltage clamped at −60 mV, and the preparation was continually perfused with ND96 solution at room temperature. […] Compound 2 (CPP-115) was tested on three oocytes from at least two harvests."}, "Mice [4]": {"test_system": "Mice", "experiment": "maximal electrical shock (MES) model", "assay_type": "in vivo", "settings": "Single IP dose, 50 mA, 2 seconds, corneal electrode", "source_text": "The MES is a model for generalized tonic-clonic seizures and provides an indication of a compound's ability to prevent seizure spread when all neuronal circuits in the brain are maximally active. These seizures are highly reproducible and are electrophysiologically consistent with human seizures. For all tests based on MES convulsions, 60 Hz of alternating current (50 mA in mice) is delivered for 2 s by corneal electrodes which have been primed with an electrolyte solution containing an anesthetic agent (0.5% tetracaine HCL). Mice are tested at various intervals following doses of 30, 100 and 300 mg/kg of test compound given by i.p. injection of a volume of 0.01 mL/g. Other doses can be used if indicated by previously known pharmacology. An animal is considered “protected” from MES-induced seizures upon abolition of the hindlimb tonic extensor component of the seizure (Swinyard et al., 1989; White et al., 1995a; White et al., 1995b)."}}, "data": [{"smiles": "N[C@H]1C[C@@H](C(=O)O)CC1=C(F)F", "note": "[CPP-115]", "values": [{"measurement": "dopamine levels after cocaine challenge", "setting": "Sprague Dawley rats", "value": "less than 300 times baseline"}, {"measurement": "IC50", "setting": "hGAT-3", "value": "> 1", "unit": "mM"}, {"measurement": "IC50", "setting": "hGAT-2", "value": "> 1", "unit": "mM"}, {"measurement": "IC50", "setting": "hGAT-1", "value": "> 1", "unit": "mM"}, {"measurement": "IC50", "setting": "hBGT-1", "value": "> 1", "unit": "mM"}, {"measurement": "ED50", "setting": "Mice [1]; Mus musculus, ip, read-out: scPIC ED50", "value": 60.7, "unit": "mg/kg"}, {"measurement": "scPIC TPE", "setting": "Mice [1]; Single IP drug dose, 2.5 mg/kg PIC", "value": "TPE 2 hours"}, {"measurement": "scBIC protected", "setting": "Mice [2]", "value": "About 50% protected"}, {"measurement": "ED50", "setting": "Mice [3]; 32 mA", "value": 5.2, "unit": "mg/kg"}, {"measurement": "ED50", "setting": "Mice [3]; 44 mA", "value": 28.4, "unit": "mg/kg"}, {"measurement": "6 Hz TPE", "setting": "Mice [3]; 32 mA", "value": "TPE 4 hours"}, {"measurement": "6 Hz TPE", "setting": "Mice [3]; 44 mA", "value": "TPE 4 hours"}, {"measurement": "IC50", "setting": "GABAB receptor", "value": "> 100", "unit": "µM"}, {"measurement": "effect as agonist or antagonist at ρ1 GABAC receptors", "setting": "human ρ1 GABAC receptors; 100 μM", "value": "no effect as an agonist or antagonist"}, {"measurement": "activation of current in oocytes", "setting": "human ρ1 GABAC receptors; 100 μM alone, clamped at −60 mV", "value": "did not activate a current"}, {"measurement": "reduction of the GABA response on co-application", "setting": "human ρ1 GABAC receptors; 100 μM co-applied with GABA 1 μM, p>0.05, n=3", "value": "did not significantly reduce the GABA response"}, {"measurement": "ED50", "setting": "Mice [4]; Mus musculus", "value": 58.9, "unit": "mg/kg"}, {"measurement": "MES TPE", "setting": "Mice [4]", "value": "TPE 6 hours"}]}]}
